In US12331054B2, “Perk inhibiting imidazolopyrazine compounds” (HiberCell, Inc., priority 2019, dated 2025) one finds IC50 data, which are given here for 17 compounds.

Structures are written as SMILES.

For experiment [1], the target named is Recombinant human EIF2AK3 (PERK) catalytic domain (amino acids 536-1116) (Homo sapiens (Human), UniProt Q9NZJ5). Nature of the experiment: PERK In Vitro Activity Assay (isolated), TR-FRET kinase assay. The settings on record: isolated PERK enzyme, 1.5 μM ATP, read-out: Biochemical IC50. The procedure, abridged:
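IC50 values come from 4-parameter logistic fits of TR-FRET ratios, read after 90 min with 2 nM terbium-labelled phospho-eIF2a antibody following an EDTA stop (10 mM final). The kinase reaction ran 45 min at room temperature, started by adding PERK catalytic domain to 100–200 nM GFP-eIF2a in HEPES pH 7.5 buffer with MgCl2, EGTA and Brij-35.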
On the technique in general: TR-FRET usually uses a lanthanide donor and a delayed reading to cut background.

For experiment [2], the system named is eIF2α in HEK293-EGFP-eIF2α cells. Nature of the experiment: PERK Cellular Assay (HEK293-EGFP-eIF2α cells, tunicamycin-induced ER stress, TR-FRET). It is filed as cell-based. As to conditions: tunicamycin 2 hours. The procedure, abridged: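 After 2 h tunicamycin ([…]) stress following 30 min compound pretreatment at 37 °C, lysed HEK293-EGFP-eIF2α cells were read by TR-FRET. IC50 derived by 4-parameter logistic fitting of percent inhibition, DMSO-normalized, from 10-point 3-fold dilutions.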

Chain of Recombinant human EIF2AK3 (PERK) catalytic domain (amino acids 536-1116) (Q9NZJ5 536-1116): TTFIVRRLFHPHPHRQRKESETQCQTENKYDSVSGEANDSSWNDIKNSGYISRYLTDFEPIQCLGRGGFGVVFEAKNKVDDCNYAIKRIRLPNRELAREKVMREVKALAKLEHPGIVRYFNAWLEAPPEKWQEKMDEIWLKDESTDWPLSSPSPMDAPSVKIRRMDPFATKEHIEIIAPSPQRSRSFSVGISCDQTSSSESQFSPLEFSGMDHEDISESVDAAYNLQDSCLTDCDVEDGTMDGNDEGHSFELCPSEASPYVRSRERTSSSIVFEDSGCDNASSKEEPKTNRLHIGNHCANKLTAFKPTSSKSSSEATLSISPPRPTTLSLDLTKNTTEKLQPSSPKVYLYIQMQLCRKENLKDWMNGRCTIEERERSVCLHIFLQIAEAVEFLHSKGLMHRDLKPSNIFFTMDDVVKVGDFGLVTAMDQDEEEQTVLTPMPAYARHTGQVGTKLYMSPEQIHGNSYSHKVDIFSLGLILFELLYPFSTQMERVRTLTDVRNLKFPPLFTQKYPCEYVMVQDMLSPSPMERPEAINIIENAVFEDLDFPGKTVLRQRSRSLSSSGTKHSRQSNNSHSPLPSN

What is called IC50 is the point on the concentration scale where inhibition reaches its midpoint. `CCc1cc(NC(=O)C(O)c2cccc(F)c2)ccc1-c1nc(C)n2c(C)cnc(N)c12` (stereo not shown) [Example 66, N-(4-(8-amino-3,5-dimethylimidazo [1,5-a]pyrazin-1-yl)-3-ethylphenyl)-2-(3-fluorophenyl)-2-hydroxy-acetamide]: the figures for the IC50 in experiment [1] and in experiment [2] were 1 to 25 nM and 26 to 50 nM, respectively.

As for `[2H]C([2H])([2H])c1nc(-c2ccc(NC(=O)C(O)c3cc(F)cc(C(F)(F)F)c3)c(F)c2F)c2c(N)ncc(C)n12` (stereo not shown) [Example 160, N-[4-[8-amino-5-methyl-3-(trideuteriomethyl)imidazo[1,5-a]pyrazin-1-yl]-2,3-difluoro-phenyl]-2-[3-fluoro-5-(trifluoromethyl)phenyl]-2-hydroxy-acetamide], the IC50 in experiment [1] and in experiment [2] was 1 to 25 nM throughout.

For `[2H]C([2H])([2H])c1nc(-c2cnc(NC(=O)C(O)c3cccc(F)c3)cc2C)c2c(N)ncc(C)n12` (stereo not shown) [Example 180, N-[5-[8-amino-5-methyl-3-(trideuteriomethyl)imidazo[1,5-a]pyrazin-1-yl]-4-methyl-2-pyridyl]-2-(3-fluorophenyl)-2-hydroxy-acetamide], the IC50 in experiment [1] lay in the range of 26 to 50 nM; in experiment [2], 501 to 1000 nM.

For `[2H]C([2H])([2H])c1nc(-c2ccc(NC(=O)C(O)c3cccc(C(F)(F)F)c3)cc2C)c2c(N)ncc(C(F)(F)F)n12` (stereo not shown) [Example 20, N-[4-[8-amino-3-(trideuteriomethyl)-5-(trifluoromethyl)imidazo[1,5-a]pyrazin-1-yl]-3-methyl-phenyl]-2-hydroxy-2-[3-(trifluoromethyl)phenyl]acetamide], the results for the IC50 in experiment [1] and in experiment [2] were 1 to 25 nM and 26 to 50 nM, respectively.

As for `[2H]C([2H])([2H])c1nc(-c2ccc(NC(=O)C(O)c3cccc(Cl)c3)cc2F)c2c(N)nc(C)cn12` (stereo not shown) [Example 80, N-[4-[8-amino-6-methyl-3-(trideuteriomethyl)imidazo[1,5-a]pyrazin-1-yl]-3-fluoro-phenyl]-2-(3-chlorophenyl)-2-hydroxy-acetamide], the IC50 in experiment [1] and in experiment [2] was 1 to 25 nM in each case.

Take `[2H]C([2H])([2H])c1nc(-c2ccc(NC(=O)C(O)c3cc(F)cc(F)c3)cc2F)c2c(N)ncc(C(F)(F)F)n12` (stereo not shown) [Example 107, N-[4-[8-amino-3-(trideuteriomethyl)-5-(trifluoromethyl)imidazo[1,5-a]pyrazin-1-yl]-3-fluoro-phenyl]-2-(3,5-difluoro-phenyl)-2-hydroxy-acetamide]: the figures for the IC50 in experiment [1] and in experiment [2] were 1 to 25 nM and 26 to 50 nM, respectively.

As for `[2H]C([2H])([2H])c1nc(-c2ccc(NC(=O)C(O)c3cc(F)cc(C(F)(F)F)c3)cc2C)c2c(N)ncc(C(F)(F)F)n12` (stereo not shown) [Example 61, N-[4-[8-amino-3-(trideuteriomethyl)-5-(trifluoromethyl)imidazo[1,5-a]pyrazin-1-yl]-3-methyl-phenyl]-2-[3-fluoro-5-(trifluoromethyl)phenyl]-2-hydroxy-acetamide], the IC50 in experiment [1] lay within 51 to 100 nM; in experiment [2], 251 to 500 nM.

Turning to `[2H]C([2H])([2H])c1nc(-c2ccc(NC(=O)C(O)c3cccc(F)c3)cc2C)c2c(N)ncc(C(F)(F)F)n12` (stereo not shown) [Example 31, N-[4-[8-amino-3-(trideuteriomethyl)-5-(trifluoromethyl)imidazo[1,5-a]pyrazin-1-yl]-3-methyl-phenyl]-2-(3-fluorophenyl)-2-hydroxy-acetamide], the IC50 in experiment [1] was in the range of 1 to 25 nM; in experiment [2] it was 251 to 500 nM.

Turning to `[2H]C([2H])([2H])c1nc(-c2ccc(NC(=O)C(O)c3cc(F)cc(C(F)(F)F)c3)cc2F)c2c(N)ncc(C)n12` (stereo not shown) [Example 110, N-[4-[8-amino-5-methyl-3-(trideuteriomethyl)imidazo[1,5-a]pyrazin-1-yl]-3-fluoro-phenyl]-2-[3-fluoro-5-(trifluoromethyl)phenyl]-2-hydroxy-acetamide], the IC50 in experiment [1] and in experiment [2] was 1 to 25 nM each time.

As for `[2H]C([2H])([2H])c1nc(-c2ccc(NC(=O)C(O)c3cccc(C(F)(F)F)c3)cc2C)c2c(N)nc(C)cn12` (stereo not shown) [Example 15, N-[4-[8-amino-6-methyl-3-(trideuteriomethyl)imidazo[1,5-a]pyrazin-1-yl]-3-methyl-phenyl]-2-hydroxy-2-[3-(trifluoromethyl)phenyl]acetamide], the concentration for half-maximal inhibition (IC50) is 101 to 250 nM in experiment [1] and 251 to 500 nM in experiment [2].

As to `[2H]C([2H])([2H])c1nc(-c2ccc(NC(=O)C(O)c3cccc(Cl)c3)c(F)c2F)c2c(N)ncc(C)n12` (stereo not shown) [Example 139, N-[4-[8-amino-5-methyl-3-(trideuteriomethyl)imidazo[1,5-a]pyrazin-1-yl]-2,3-difluoro-phenyl]-2-(3-chlorophenyl)-2-hydroxy-acetamide], the results for the 50% inhibitory concentration (IC50) in experiment [1] and in experiment [2] were 1 to 25 nM and 101 to 250 nM, respectively.

As to `[2H]C([2H])([2H])c1nc(-c2ccc(NC(=O)C(O)c3cc(F)cc(F)c3)cc2C)c2c(N)ncc(Cl)n12` (stereo not shown) [Example 48, N-[4-[8-amino-5-chloro-3-(trideuteriomethyl)imidazo[1,5-a]pyrazin-1-yl]-3-methyl-phenyl]-2-(3,5-difluoro-phenyl)-2-hydroxy-acetamide], the IC50 in experiment [1] and in experiment [2] (2 h) was 1 to 25 nM throughout.

With `[2H]C([2H])([2H])c1nc(-c2ccc(NC(=O)C(O)c3cc(F)cc(F)c3)cc2F)c2c(N)ncc(C)n12` (stereo not shown) [Example 105, N-[4-[8-amino-5-methyl-3-(trideuteriomethyl)imidazo[1,5-a]pyrazin-1-yl]-3-fluoro-phenyl]-2-(3,5-difluoro-phenyl)-2-hydroxy-acetamide], the IC50 was in the range of 1 to 25 nM in experiment [1] and 26 to 50 nM in experiment [2].

As to `[2H]C([2H])([2H])c1nc(-c2ccc(NC(=O)C(O)c3cc(F)cc(F)c3)cc2C)c2c(N)ncc(C)n12` (stereo not shown) [Example 51, N-[4-[8-amino-5-methyl-3-(trideuteriomethyl)imidazo[1,5-a]pyrazin-1-yl]-3-methyl-phenyl]-2-(3,5-difluoro-phenyl)-2-hydroxy-acetamide], the IC50 fell in the range of 1 to 25 nM in experiment [1] and 51 to 100 nM in experiment [2].

As for `[2H]C([2H])([2H])c1nc(-c2ccc(NC(=O)C(O)c3cc(F)cc(F)c3)cc2C)c2c(N)ncc(C)n12` (stereo not shown) [Example 50, N-[4-[8-amino-5-methyl-3-(trideuteriomethyl)imidazo[1,5-a]pyrazin-1-yl]-3-methyl-phenyl]-2-(3,5-difluoro-phenyl)-2-hydroxy-acetamide], the IC50 in experiment [1] and in experiment [2] was 1 to 25 nM throughout.

Turning to `[2H]C([2H])([2H])c1nc(-c2ccc(NC(=O)C(O)c3cc(F)cc(F)c3)c(F)c2F)c2c(N)ncc(C(F)(F)F)n12` (stereo not shown) [Example 159, N-[4-[8-amino-3-(trideuteriomethyl)-5-(trifluoromethyl)imidazo[1,5-a]pyrazin-1-yl]-2,3-difluoro-phenyl]-2-(3,5-difluorophenyl)-2-hydroxy-acetamide], the IC50 in experiment [1] fell in the range of 51 to 100 nM; in experiment [2] it was 251 to 500 nM.

For `[2H]C([2H])([2H])c1nc(-c2ccc(NC(=O)C(O)c3cccc(F)c3)cc2F)c2c(N)ncc(C(F)(F)F)n12` (stereo not shown) [Example 76, N-[4-[8-amino-3-(trideuteriomethyl)-5-(trifluoromethyl)imidazo[1,5-a]pyrazin-1-yl]-3-fluoro-phenyl]-2-(3-fluorophenyl)-2-hydroxy-acetamide], the IC50 in experiment [1] and in experiment [2] was 1 to 25 nM throughout.
